These results are taken from patent publication US10183944B2 (Asana Biosciences, LLC, priority 2011, dated 2019).

For test [1], the target named is Syk (356-635 amino acids) catalytic domain (Homo sapiens (Human), UniProt P43405). Briefly: Inhibition of enzymatic Syk kinase activity (radiometric). It is filed as biochemical. The settings on record: read-out: IC50 Syk. The method in brief: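 Human Syk (356-635) kinase domain (0.035–7.5 ng/reaction) preincubated with compound 30 minutes at room temperature, then reacted with pG4T substrate, 100 μM ATP (stock) and γ-32P-ATP for 10 minutes at 30° C. Reaction stopped with HCl/ATP, spotted on P81 paper, washed and counted by scintillation. Percent inhibition versus no-compound counts.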

A further test addresses JAK2 (Homo sapiens (Human), UniProt O60674). Briefly: Inhibition of enzymatic JAK2 kinase activity (TR-FRET). It is filed as biochemical. The settings on record: read-out: IC50 JAK. Summed up:
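Enzyme preincubated with compound 30 min at RT, then Ulight-poly-GT substrate and ATP added for 60 min at RT. EDTA stop, Eu-antiphosphotyrosine antibody; TR-FRET ratio 665/615 nm (ex 340 nm), blank-corrected; % inhibition versus positive control.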

Where a name gives a salt, the structure may show the parent alone. Some results are limits rather than exact numbers.

Sequence of JAK2 (O60674 808-1132): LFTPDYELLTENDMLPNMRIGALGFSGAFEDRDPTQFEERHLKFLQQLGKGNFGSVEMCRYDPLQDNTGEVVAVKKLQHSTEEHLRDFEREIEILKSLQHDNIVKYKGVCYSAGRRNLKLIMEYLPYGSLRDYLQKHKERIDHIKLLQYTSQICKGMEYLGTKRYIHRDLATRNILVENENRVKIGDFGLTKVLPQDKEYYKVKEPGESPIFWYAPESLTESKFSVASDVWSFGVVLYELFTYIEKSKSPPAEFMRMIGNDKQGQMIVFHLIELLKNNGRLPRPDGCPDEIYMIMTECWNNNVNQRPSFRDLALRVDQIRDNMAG

For the molecule `O=C(O)C1CCN(c2nc(Nc3ccc(CN4CCNCC4)cc3)c3c(=O)[nH]ncc3n2)CC1` [Example 51, 1-(5-oxo-4-((4-(piperazin-1-ylmethyl)phenyl)amino)-5,6-dihydropyrimido[4,5-d]pyridazin-2-yl)piperidine-4-carboxylic acid hydrochloride], the IC50 (in test [1]; at JAK2) was above 100 nM in each case.
Take `N#CCC1CCN(c2nc(Nc3ccc(OC4CCN(CCO)CC4)cc3)c3c(=O)[nH]ncc3n2)CC1` [Example 291, 2-(1-(4-((4-((1-(2-hydroxyethyl)piperidin-4-yl)oxy)phenyl)amino)-5-oxo-5,6-dihydropyrimido[4,5-d]pyridazin-2-yl)piperidin-4-yl)acetonitrile]: the IC50 (in test [1]; on JAK2) was below 50 nM throughout.
Regarding `CCN1CCN(c2ccc(Nc3nc(-c4ccc(OC(F)(F)F)cc4)nc4cn[nH]c(=O)c34)cc2)CC1` [Example 28, 4-(4-(4-ethylpiperazin-1-yl)phenylamino)-2-(4-(trifluoromethoxy)phenyl) pyrimido[4,5-d]pyridazin-5(6H)-one], the IC50 (in test [1]; at JAK2) was above 100 nM throughout.
`N#CCC1CCN(c2ccc(Nc3nc(-c4ccccc4)nc4cn[nH]c(=O)c34)cn2)CC1` [Example 101, 2-(1-(5-((5-oxo-2-phenyl-5,6-dihydropyrimido[4,5-d]pyridazin-4-yl)amino)pyridin-2-yl)piperidin-4-yl) acetonitrile]: the IC50 (in test [1]; on JAK2) was above 100 nM in each case.
On to `N#CCC1CCN(c2nc(Nc3ccc(CCCF)cc3)c3c(=O)[nH]ncc3n2)CC1` [Example 337, 2-(1-(4-((4-(3-fluoropropyl)phenyl)amino)-5-oxo-5,6-dihydropyrimido[4,5-d]pyridazin-2-yl)piperidin-4-yl) acetonitrile], for which the IC50 (in test [1]; on JAK2) was below 50 nM throughout.
As for `CC(C)(O)C(=O)N1CCN(Cc2ccc(Nc3nc(N4CCCCCC4)nc4cn[nH]c(=O)c34)cc2)CC1` [Example 84, 2-(azepan-1-yl)-4-((4-((4-(2-hydroxy-2-methylpropanoyl)piperazin-1-yl)methyl)phenyl)amino)pyrimido[4,5-d]pyridazin-5(6H)-one], the IC50 is below 50 nM in test [1] and below 10 nM at JAK2.
On the same counts, the results for `O=c1[nH]ncc2nc(N3CCCCCC3)nc(Nc3ccc(OCCN4CCC(CO)CC4)cc3)c12` [Example 203, 2-(azepan-1-yl)-4-((4-(2-(4-(hydroxymethyl)piperidin-1-yl)ethoxy)phenyl)amino)pyrimido[4,5-d]pyridazin-5(6H)-one] are below 50 nM and below 10 nM.
Taken in the same sequence, the figures for `N#CCC1CCN(c2ccc(Nc3nc(N4CCCCCC4)nc4cn[nH]c(=O)c34)cc2)CC1` [Example 113, 2-(1-(4-((2-(azepan-1-yl)-5-oxo-5,6-dihydropyrimido[4,5-d]pyridazin-4-yl)amino)phenyl)piperidin-4-yl)acetonitrile] were above 100 nM and below 10 nM.
On the same counts, the results for `N#CCC1CCN(c2nc(Nc3ccc(OCCN4CCNCC4)cc3)c3c(=O)[nH]ncc3n2)CC1` [Example 150, 2-(1-(5-oxo-4-((4-(2-(piperazin-1-yl)ethoxy)phenyl)amino)-5,6-dihydropyrimido[4,5-d]pyridazin-2-yl)piperidin-4-yl)acetonitrile] are below 50 nM and above 100 nM.
On to `N#CCC1CCN(c2nc(Nc3ccc(N4CCC(CCCO)CC4)cc3)c3c(=O)[nH]ncc3n2)CC1` [Example 205, 2-(1-(4-((4-(4-(3-hydroxypropyl)piperidin-1-yl)phenyl)amino)-5-oxo-5,6-dihydropyrimido[4,5-d]pyridazin-2-yl)piperidin-4-yl)acetonitrile], for which the concentration for half-maximal inhibition (IC50) (in test [1]; at JAK2) was below 50 nM in each case.
On to `O=c1[nH]ncc2nc(N3CCCCCC3)nc(Nc3ccc(N4CCC(CCO)CC4)nc3)c12` [Example 236, 2-(azepan-1-yl)-4-((6-(4-(2-hydroxyethyl)piperidin-1-yl)pyridin-3-yl)amino) pyrimido[4,5-d]pyridazin-5(6H)-one], for which the IC50 is below 100 nM in test [1] and below 50 nM on JAK2.
Taken in the same sequence, the figures for `O=c1[nH]ncc2nc(N3CCCCC3)nc(Nc3ccc(OCCN4CCNCC4)nc3)c12` [Example 181, 4-((6-(2-(piperazin-1-yl)ethoxy)pyridin-3-yl)amino)-2-(piperidin-1-yl)pyrimido[4,5-d]pyridazin-5(6H)-one] were above 100 nM and above 100 nM.
On the same counts, the results for `O=c1[nH]ncc2nc(N3CCCCCC3)nc(Nc3ccc(N4CCC(CO)CC4)cc3)c12` [Example 202, 2-(azepan-1-yl)-4-((4-(4-(hydroxymethyl)piperidin-1-yl)phenyl)amino) pyrimido[4,5-d]pyridazin-5(6H)-one] are below 50 nM and below 10 nM.
Regarding `O=c1[nH]ncc2nc(N3CCCCCC3)nc(Nc3ccc(CCN4CCNCC4)cc3)c12` [Example 198, 2-(azepan-1-yl)-4-((4-(2-(piperazin-1-yl)ethyl)phenyl)amino)pyrimido[4,5-d]pyridazin-5(6H)-one], the IC50 (in test [1]; at JAK2) was below 10 nM throughout.
With `CC(C)(C#N)C1CCN(c2nc(Nc3ccc(N4CCC(CC(=O)O)CC4)cc3)c3c(=O)[nH]ncc3n2)CC1` [Example 100, 2-(1-(4-((2-(4-(2-cyanopropan-2-yl)piperidin-1-yl)-5-oxo-5,6-dihydropyrimido[4,5-d]pyridazin-4-yl)amino)phenyl)piperidin-4-yl)acetic acid], the IC50 (in test [1]; at JAK2) was below 50 nM throughout.
Regarding `O=C(O)C1CC12CCN(c1ccc(Nc3nc(C4CCCCC4)nc4cn[nH]c(=O)c34)cc1)CC2` (stereo not shown) [Example 79, 6-(4-((2-cyclohexyl-5-oxo-5,6-dihydropyrimido[4,5-d]pyridazin-4-yl)amino)phenyl)-6-azaspiro[2.5]octane-1-carboxylic acid], the results for the IC50 (in test [1]; at JAK2) were below 50 nM and below 10 nM, respectively.
Taken in the same sequence, the figures for `CC(C)(CO)Oc1ccc(Nc2nc(N3CCCCCC3)nc3cn[nH]c(=O)c23)cc1` [Example 314, 2-(azepan-1-yl)-4-((4-((1-hydroxy-2-methylpropan-2-yl)oxy)phenyl)amino) pyrimido[4,5-d]pyridazin-5(6H)-one] were below 50 nM and below 10 nM.
Turning to `N#CCC1CCN(c2nc(Nc3ccc(OC(F)F)cc3)c3c(=O)[nH]ncc3n2)CC1` [Example 338, 2-(1-(4-((4-(difluoromethoxy)phenyl)amino)-5-oxo-5,6-dihydropyrimido[4,5-d]pyridazin-2-yl)piperidin-4-yl) acetonitrile], the IC50 in test [1] was below 100 nM; on JAK2 it was above 100 nM.
On the same counts, the results for `CCN1CCN(CCc2ccc(Nc3nc(N4CCC(CC#N)CC4)nc4cn[nH]c(=O)c34)cc2)CC1` [Example 197, 2-(1-(4-((4-(2-(4-ethylpiperazin-1-yl)ethyl)phenyl)amino)-5-oxo-5,6-dihydropyrimido[4,5-d]pyridazin-2-yl)piperidin-4-yl)acetonitrile] are below 10 nM and below 10 nM.
Taken in the same sequence, the figures for `CN(C)c1nc(Nc2ccc(CN3CCNCC3)cc2)c2c(=O)[nH]ncc2n1` [Example 49, 2-(dimethylamino)-4-((4-(piperazin-1-ylmethyl)phenyl)amino)pyrimido[4,5-d]pyridazin-5(6H)-one hydrochloride] were below 100 nM and below 100 nM.
On the same counts, the results for `O=c1[nH]ncc2nc(N3CCC4(CC3)CC4)nc(Nc3ccc(N4CCOCC4)cc3)c12` [Example 18, 4-(4-morpholinophenylamino)-2-(6-azaspiro[2.5]octan-6-yl)pyrimido[4,5-d]pyridazin-5(6H)-one] are above 100 nM and below 50 nM.
As for `O=C(O)C1CC12CCN(c1ccc(Nc3nc(-c4ccccc4)nc4cn[nH]c(=O)c34)cc1)CC2` (stereo not shown) [Example 22, sodium 6-(4-(5-oxo-2-phenyl-5,6-dihydropyrimido[4,5-d]pyridazin-4-ylamino)phenyl)-6-azaspiro[2.5]octane-1-carboxylate], the IC50 in test [1] is below 100 nM; at JAK2, below 50 nM.
For `N#CCC1CCN(c2nc(Nc3ccc(N4CCC(Cc5nn[nH]n5)CC4)nc3)c3c(=O)[nH]ncc3n2)CC1` [Example 253, 2-(1-(4-((6-(4-((2H-tetrazol-5-yl)methyl)piperidin-1-yl)pyridin-3-yl)amino)-5-oxo-5,6-dihydropyrimido[4,5-d]pyridazin-2-yl)piperidin-4-yl) acetonitrile], the IC50 was below 50 nM in test [1] and below 10 nM on JAK2.
On the same counts, the results for `CN1CCN(c2ccc(Nc3nc(N4CCC(CC#N)CC4)nc4cn[nH]c(=O)c34)cn2)CC1` [Example 243, 2-(1-(4-((6-(4-methylpiperazin-1-yl)pyridin-3-yl)amino)-5-oxo-5,6-dihydropyrimido[4,5-d]pyridazin-2-yl)piperidin-4-yl)acetonitrile] are below 50 nM and below 50 nM.
Taken in the same sequence, the figures for `O=C(O)C1CC12CCN(c1ccc(Nc3nc(N4CCCNCC4)nc4cn[nH]c(=O)c34)cc1)CC2` (stereo not shown) [Example 72, 6-(4-((2-(1,4-diazepan-1-yl)-5-oxo-5,6-dihydropyrimido[4,5-d]pyridazin-4-yl)amino)phenyl)-6-azaspiro[2.5]octane-1-carboxylic acid hydrochloride] were below 50 nM and below 100 nM.
On the same counts, the results for `CS(=O)(=O)c1ccc(Nc2nc(N3CCCCCC3)nc3cn[nH]c(=O)c23)cc1` [Example 334, 2-(azepan-1-yl)-4-((4-(methylsulfonyl)phenyl)amino)pyrimido[4,5-d]pyridazin-5(6H)-one] are below 50 nM and below 10 nM.
